We go through 7 molecules from article PMC11492426, “Design, synthesis, and biological evaluation of novel quinoline-based EGFR/HER-2 dual-target inhibitors as potential anti-tumor agents” (RSC Advances, 2024).

The subject of data set [1] is four human cancer cell lines (A-549, MCF-7, Panc-1, HT-29). As to the kind of experiment: Antiproliferative assay, average over four cancer cell lines. The class given is cell-based. Conditions: Homo sapiens, average IC50 over the four cancer cell lines.
For data set [2], the system named is A-549 lung cancer cell line. As to the kind of experiment: Antiproliferative assay, A-549. Conditions: Homo sapiens, A549; A-549 lung cancer cells; read-out: Antiproliferative activity IC50 ± SEM, A-549. The format is cell-based.
Data set [3] concerns MCF-7 breast cancer cell line. Nature of the data set: Antiproliferative assay, MCF-7. The class given is cell-based. The following applies: Homo sapiens, MCF7; MCF-7 breast cancer cells; read-out: Antiproliferative activity IC50 ± SEM, MCF-7.
For data set [4], the target named is T1, EGFR (Homo sapiens, UniProt P00533). As to the kind of experiment: EGFR inhibitory assay (EGFR-TK assay).
T1 sequence (P00533 669-1210): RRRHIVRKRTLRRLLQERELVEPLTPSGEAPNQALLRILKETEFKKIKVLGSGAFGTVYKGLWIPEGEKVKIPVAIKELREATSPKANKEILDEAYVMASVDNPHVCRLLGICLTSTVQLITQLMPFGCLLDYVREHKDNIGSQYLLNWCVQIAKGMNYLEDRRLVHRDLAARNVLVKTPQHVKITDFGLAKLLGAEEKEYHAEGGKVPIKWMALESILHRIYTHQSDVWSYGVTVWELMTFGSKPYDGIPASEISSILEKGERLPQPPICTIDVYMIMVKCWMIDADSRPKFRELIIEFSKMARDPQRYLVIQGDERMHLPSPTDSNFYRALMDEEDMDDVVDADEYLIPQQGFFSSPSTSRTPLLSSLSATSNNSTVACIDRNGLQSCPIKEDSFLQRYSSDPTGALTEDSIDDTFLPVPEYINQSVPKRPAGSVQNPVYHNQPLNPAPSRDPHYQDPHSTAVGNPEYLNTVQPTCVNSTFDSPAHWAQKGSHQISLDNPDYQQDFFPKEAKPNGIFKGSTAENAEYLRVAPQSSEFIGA
Data set [5] in a line: Cell viability assay (MTT) on MCF-10A normal cells. The following applies: human, MCF-10A mammary gland epithelial normal cells, MCF-10A cells, four-day incubation. The format is cell-based. On the procedure:
The impact of compounds 3a–h and 5a–d on cell viability was evaluated using the human mammary (MCF-10A) gland epithelium normal cell line. The MTT assay was used to evaluate the cell viability of 3a–h and 5a–d after a four-day incubation period on MCF-10A cells.[46] Refer to Appendix A for more details.
The effect of new compounds 3a–h and 5a–d on cell viability was evaluated using the MCF-10A (human mammary gland epithelium) normal cell line.
4.2. Biological evaluation
4.2.1 Cell Viability assay (MTT assay)
MTT assay was performed to investigate the effect of the synthesized compounds on mammary epithelial cells (MCF-10A). The cells were propagated in medium consisting of Ham's F-12 medium/ Dulbecco's modified Eagle's medium (DMEM) (1:1) supplemented with 10% foetal calf serum, 2 mM glutamine, insulin (10 μg/mL), hydrocortisone (500 ng/mL) and epidermal growth factor (20 ng/mL). Trypsin ethylenediamine tetra acetic acid (EDTA) was used to passage the cells after every 2-3 days. 96-well flat-bottomed cell culture plates were used to seed the cells at a density of 10^4 cells mL-1. The medium was aspirated from all the wells of culture plates after 24 h followed by the addition of synthesized compounds (in 200 μL medium to yield a final concentration of 0.1% (v/v) dimethyl sulfoxide) into individual wells of the plates. Four wells were designated to a single compound. The plates were allowed to incubate at 37°C for 96 h. Afterwards, the medium was aspirated and 3-[4,5-dimethylthiazol-2-yl]-2,5-diphenyltetrazolium bromide (MTT) (0.4 mg/mL) in medium was added to each well and subsequently incubated for 3 h. The medium was aspirated and 150 μL dimethyl sulfoxide (DMSO) was added to each well. The plates were vortexed followed by the measurement of absorbance at 540 nm on a microplate reader. The results were presented as inhibition (%) of proliferation in contrast to controls comprising 0.1% DMSO.

For data set [6], the system named is HT-29 colon cancer cell line. Nature of the data set: Antiproliferative assay, HT-29. The class given is cell-based. Conditions: Homo sapiens; HT-29 colon cancer cells; read-out: Antiproliferative activity IC50 ± SEM, HT-29.
Data set [7] concerns Panc-1 pancreatic cancer cell line. Nature of the data set: Antiproliferative assay, Panc-1. The following applies: Homo sapiens; Panc-1 pancreatic cancer cells; read-out: Antiproliferative activity IC50 ± SEM, Panc-1. The class given is cell-based.
In another data set the target is HER2 (Homo sapiens, UniProt P04626). Nature of the data set: HER2 inhibitory assay (ADP-Glo kinase assay). In general terms: ADP-Glo turns the ADP formed in a reaction into a luminescent signal.
HER2, sequence (P04626 676-1255 limits assumed): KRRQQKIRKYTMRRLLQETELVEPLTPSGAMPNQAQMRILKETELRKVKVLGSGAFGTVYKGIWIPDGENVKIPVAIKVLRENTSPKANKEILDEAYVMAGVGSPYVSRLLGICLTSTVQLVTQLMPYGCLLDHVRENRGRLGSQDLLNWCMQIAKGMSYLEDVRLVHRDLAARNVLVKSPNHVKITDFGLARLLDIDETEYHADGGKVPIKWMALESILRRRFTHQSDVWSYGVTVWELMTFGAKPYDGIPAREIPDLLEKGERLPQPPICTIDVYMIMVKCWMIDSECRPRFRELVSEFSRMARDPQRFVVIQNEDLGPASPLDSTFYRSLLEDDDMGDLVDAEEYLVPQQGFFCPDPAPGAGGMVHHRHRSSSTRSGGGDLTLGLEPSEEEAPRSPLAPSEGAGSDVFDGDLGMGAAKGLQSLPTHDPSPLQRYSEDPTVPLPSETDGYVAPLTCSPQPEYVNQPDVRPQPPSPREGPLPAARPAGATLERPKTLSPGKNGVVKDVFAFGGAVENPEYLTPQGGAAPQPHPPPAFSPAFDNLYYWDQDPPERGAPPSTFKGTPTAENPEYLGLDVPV
Data set [8] deals with four human cancer cell lines. More on the design: method as in ref 39 = [39]; Mohassab A. M. Hassan H. A. Abou-Zied H. A. Fujita M. Otsuka M. Gomaa H. A. Youssif B. G. Abdel-Aziz M. J. Mol. Struct. 2024 1297 136953. Conditions: read-out: GI50 against four cancer cell lines; cited from earlier work.
A further data set has as its system Caspase-8. Nature of the data set: Caspase-8 activation assay in MCF-7 cells. The class given is cell-based, human.
Another data set concerns Caspase-3. As to the kind of experiment: Caspase-3 activation assay in MCF-7 cells. The format is cell-based, human.
Another data set concerns Bcl-2. Nature of the data set: Bcl-2 inhibition assay in MCF-7 cells. The class given is cell-based, human. The protocol: Additionally, the treatment led to a notable reduction in anti-apoptotic Bcl-2 expression levels, with a fold decrease of roughly 6 for compound 3e and 8 for compound 5a. Compounds 3e and 5a markedly elevated the Bax/Bcl-2 ratio compared to the control untreated cells. […]
4.2.8. Bcl-2 inhibition assay
Mix all reagents thoroughly without foaming before use. Wash the microwells twice with approximately 300 μL Wash Buffer per well with thorough aspiration of microwell contents between washes. Take caution not to scratch the surface of the microwells. After the last wash, empty the wells and tap microwell strips on absorbent pad or paper towel to remove excess Wash Buffer. Use the microwell strips immediately after washing or place upside down on a wet absorbent paper for not […]
longer than 15 minutes. […] Add 100 μL of Sample Diluent in duplicate to all standard wells and to the blank wells. Prepare standard (1:2 dilution) in duplicate ranging from 32 ng/mL to 0.5 ng/mL. Add 100 μL of Sample Diluent, in duplicate, to the blank wells. Add 80 μL of Sample Diluent, in duplicate, to the sample wells. Add 20 μL of each Sample, in duplicate, to the designated wells. Add 50 μL of diluted biotin-conjugate to all wells, including the blank wells. Cover with a plate cover and incubate at room temperature, on a microplate shaker at 100 rpm if available, for 2 hours. Remove plate cover and empty the wells. Wash microwell strips 3 times as described in step 2. Add 100 μL of diluted Streptavidin-HRP to all wells, including the blank wells. Cover with a plate cover and incubate at room temperature, on a microplate shaker at 100 rpm if available, for 1 hour. Remove plate cover and empty the wells. Wash microwell strips 3 times as described in step 2.
Proceed to the next step. Pipette 100 μl of mixed TMB Substrate Solution to all wells, including the blanks. Incubate the microwell strips at room temperature (18° to 25°C) for about 15 minutes, if available on a rotator set at 100 rpm. Avoid direct exposure to intense light. The point, at which the substrate reaction is stopped, is often determined by the ELISA reader. Many ELISA readers record absorbance only up to 2.0 O.D. Therefore, the color development within individual microwells must be watched by the person running the assay and the substrate reaction stopped before positive wells are no longer properly detectable. Stop the enzyme reaction by quickly pipetting 100 μL of Stop Solution into each well, including the blank wells. It is important that the Stop Solution is spread quickly and uniformly throughout the microwells to completely inactivate the enzyme. Results must be read immediately after the Stop Solution is added or within one hour if the microwell strips are stored at 2 - 8°C in the dark. Read absorbance of each microwell on a spectrophotometer using 450 nm as the primary wavelength.
4.3. Statistical analysis
Computerized Prism 5 program was used to statistically analyzed data using one-way ANOVA test followed by Tukey’s as post ANOVA for multiple comparison at P ≤.05. Data were presented as […]

A further data set relates to Bax. As to the kind of experiment: Bax activation assay in MCF-7 cells. The class given is cell-based, human. On the procedure: This lysate was diluted in Standard Diluent Buffer over the range of the assay and measured for human active caspase-8 content. (Cells are Plated in a density of 1.2 – 1.8 × 10,000 cells/well in a volume of 100µl complete growth medium + 100 ul of the tested compound per well in a 96-well plate for 24 hours before the enzyme assay for […].). […]
4.2.7. Bax activation assay
Bring all reagents, except the human Bax-α Standard, to room temperature for at least 30 minutes prior to opening. The human Bax-α Standard solution should not be left at room temperature for more than 10 minutes. All standards, controls and samples should be run in duplicate. Refer to the Assay Layout Sheet to determine the number of wells to be used and put any remaining wells with the desiccant back into the pouch and seal the ziploc. Store unused wells at 4 °C. Pipet 100 μL of Assay Buffer into the S0 (0 pg/mL standard) wells. Pipet 100 μL of Standards #1 through #6 into the appropriate wells. Pipet 100 μL of the Samples into the appropriate wells. Tap the plate gently to mix the contents. Seal the plate and incubate at room temperature on a plate shaker for 1 hour at ~500 rpm. Empty the contents of the wells and wash by adding 400 μL of wash solution to every well.
Repeat the wash 4 more times for a total of 5 washes. After the final wash, empty or aspirate the wells and firmly tap the plate on a lint free paper towel to remove any remaining wash buffer. Pipet 100 μL of yellow Antibody into each well, except the Blank. Seal the plate and incubate at room temperature on a plate shaker for 1 hour at ~500 rpm. Empty the contents of the wells and wash by adding 400 μL of wash solution to every well. Repeat the wash 4 more times for a total of 5 washes.
After the final wash, empty or aspirate the wells and firmly tap the plate on a lint free paper towel to remove any remaining wash buffer. Add 100 μL of blue Conjugate to each well, except the Blank.
Seal the plate and incubate at room temperature on a plate shaker for 30 minutes at ~500 rpm. Empty the contents of the wells and wash by adding 400 μL of wash solution to every well. Repeat the wash 4 more times for a total of 5 washes. After the final wash, empty or aspirate the wells and firmly tap […]
the plate on a lint free paper towel to remove any remaining wash buffer. Pipet 100 μL of Substrate Solution into each well. Incubate for 30 minutes at room temperature on a plate shaker at ~500 rpm.
Pipet 100 μL Stop Solution to each well. Blank the plate reader against the Blank wells, read the optical density at 450 nm. Calculate the average net Optical Density (OD) bound for each standard and sample by subtracting the average Blank OD from the average OD for each standard and sample.
Using linear graph paper, plot the Average Net OD for each standard versus Bax concentration in each standard. Approximate a straight line through the points. The concentration of Bax in the unknowns can be determined by interpolation. […]
Remove plate cover and empty the wells. […]
Incubate the microwell strips at room temperature (18° to 25°C) for about 15 minutes, if

Data set [9] has as its target T1, EGFR. More on the design: 645–1186; His6 (N); made in house; host or cells: Sf-9 insect cells (baculovirus vectors pBlueBacHis2B / pFASTBacHTc); method as in ref 38 (Makawana et al.). The following applies: ref 38 (Makawana et al.); cited from earlier work.
Data set [10] relates to BRAF^V600E. More on the design: method as in PMID 33279248. Conditions: cited from earlier work.
Data set [11] relates to BRAF^V600E. More on the design: method as in ref 39 = [39]; Mohassab A. M. Hassan H. A. Abou-Zied H. A. Fujita M. Otsuka M. Gomaa H. A. Youssif B. G. Abdel-Aziz M. J. Mol. Struct. 2024 1297 136953. Conditions: cited from earlier work.

Read-outs that look alike come from different tables or passages of the source.

In the case of `Cn1c(=O)c(C=Nc2ccc(NS(=O)(=O)c3ncccn3)cc2)c(O)c2ccccc21` [Compound 5d, N-(4-(((4-hydroxy-1-methyl-2-oxo-1,2-dihydroquinolin-3-yl)methylene)amino)phenyl)pyrimidine-2-sulfonamide], the melting point (in general, the temperature, or range, at which the solid turns liquid) lay in the range of 318 to 320 °C. Further, the GI50 (usually the concentration at which growth is held to half of that of the control) in [1] stood at 0.046 µM. In addition, in [2], the IC50 (as a rule, the concentration that gives 50% inhibition) was found to be 0.046 ± 0.004 µM. Moreover, in [3], the IC50 came to 0.042 ± 0.004 µM. At EGFR [4], this molecule came in with an IC50 of 0.093 ± 0.005 µM. Besides, the viability (commonly the share of living cells, or the viability signal relative to a control) at 96 h, 50 µM in data set [5] came out at 90%. Further, the IC50 in data set [6] worked out at 0.048 ± 0.004 µM. In addition, the IC50 in [7] is 0.048 ± 0.004 µM. This molecule came in with an IC50 at HER2 of 0.053 ± 0.003 µM.
In the case of `COc1cccc2c1C(=O)c1c(O)c3c(c(O)c1C2=O)C[C@@](O)(C(=O)CO)C[C@@H]3O[C@H]1C[C@H](N)[C@H](O)[C@H](C)O1` [doxorubicin], in data set [8], the GI50 was 1.4 µM.
As for `CN[C@@H]1C[C@H]2O[C@@](C)([C@@H]1OC)n1c3ccccc3c3c4c(c5c6ccccc6n2c5c31)C(=O)NC4` [Staurosporine, reference compound], in the data set with Caspase-8 (treated at IC50 concentration), the “Caspase-8 Conc.” value turned out to be 1.60 ± 0.10 ng/mL. In the data set on Caspase-8 (versus untreated control), the “Caspase-8 Fold change” value is recorded as 18. Moreover, the “Caspase-3 Conc.” value in the data set with Caspase-3 (treated at IC50 concentration) was found to be 465 ± 4 pg/mL. Also, the “Caspase-3 Fold change” value in the data set on Caspase-3 (versus untreated control) is 7. Also, the “Bcl-2 Conc.” value in the data set on Bcl-2 (treated at IC50 values) came to 1.00 ng/mL. In the data set on Bcl-2 (versus untreated control), the “Bcl-2 Fold reduction” value is given as 5. Further, in the data set with Bax (treated at IC50 values), the “Bax Conc.” value was 288 ± 2 pg/mL. The “Bax Fold change” value in the data set on Bax (versus untreated control) worked out at 32.
Turning to `CC(=NO)c1ccc(NC(=O)c2cc(-c3ccc(S(C)(=O)=O)cc3)nc3ccccc23)cc1` [Compound VIII], in data set [8], the GI50 is 1.2 µM.
As to `COc1ccc(Oc2nc3ccc(C)cc3cc2/C=N/NC(=O)Cn2cc([N+](=O)[O-])nc2C)cc1` [Compound VII], the IC50 at EGFR [9] was 0.12 ± 0.05 µM.
`C#Cc1cccc(Nc2ncnc3cc(OCCOC)c(OCCOC)cc23)c1` [Erlotinib, reference compound]: the IC50 is 0.03 ± 0.003 µM in data set [2]; […] with BRAF^V600E [10]; 0.04 ± 0.003 µM in data set [3]; […] in the data set on BRAF^V600E [11]; 0.03 ± 0.003 µM in data set [6]; 0.03 ± 0.003 µM in data set [7].
For the molecule `Cc1ccc2[nH]c(=O)c(C=Nc3ccc(NS(=O)(=O)c4ncccn4)cc3)c(O)c2c1` [Compound 5b, N-(4-(((4-hydroxy-6-methyl-2-oxo-1,2-dihydroquinolin-3-yl)methylene)amino)phenyl)pyrimidine-2-sulfonamide], the GI50 in data set [1] amounted to 0.039 µM. Besides, the IC50 in data set [2] turned out to be 0.039 ± 0.004 µM; in [3] it was 0.035 ± 0.004 µM; against EGFR [4], 0.085 ± 0.005 µM; in data set [6], 0.04 ± 0.003 µM; in data set [7], 0.041 ± 0.004 µM; at HER2, 0.047 ± 0.003 µM. In data set [5], this molecule registered a viability at 96 h, 50 µM of 90%.
